Each block holds one compound with its values, some of them ahead of it.
How the values were obtained:
Leishmania donovani = assay: Antileishmanial activity against Leishmania donovani promastigotes assessed as inhibition of parasite growth measured after 24 hrs by Alamar blue based analysis; assay type: functional, organism-based
Leishmania aethiopica = assay: Antileishmanial activity against Leishmania aethiopica amastigotes assessed as inhibition of parasite growth measured after 24 hrs by Alamar blue based analysis; assay type: functional, organism-based
Trypanosoma cruzi [1] = assay: Antitrypanosomal activity against bloodstream Trypanosoma cruzi Y strain trypomastigotes assessed as parasite growth inhibition incubated for 24 hrs by Neubauer chamber based light microscopic analysis; assay type: functional, organism-based
[2] = Selectivity index, ratio of CC50 for cytotoxicity against Swiss mouse peritoneal macrophages to IC50 for antitrypanosomal activity against bloodstream Trypanosoma cruzi Y strain trypomastigotes; assay type: toxicity; details: read-out: Ratio CC50/IC50
Trypanosoma cruzi [3] = assay: Antitrypanosomal activity against Trypanosoma cruzi epimastigote Dm28c strain assessed as parasite growth inhibition incubated for 96 hrs by Neubauer chamber based light microscopic analysis; assay type: functional, organism-based
Trypanosoma cruzi [4] = assay: Antitrypanosomal activity against Trypanosoma cruzi Y strain epimastigotes assessed as parasite growth inhibition incubated for 48 hrs by spectrophotometric analysis; assay type: functional, organism-based
Leishmania infantum [5] = assay: Antileishmanial activity against Leishmania infantum promastigotes assessed as inhibition of parasite growth; assay type: functional, organism-based
Leishmania infantum [6] = assay: Antileishmanial activity against Leishmania infantum amastigotes assessed as inhibition of parasite growth; assay type: functional, organism-based
Trypanosoma cruzi [7] = assay: Antitrypanosomal activity against bloodstream Trypanosoma cruzi Y strain trypomastigotes assessed as parasite growth inhibition incubated for 24 hrs by light microscopic analysis; assay type: functional, organism-based
Trypanosoma cruzi [8] = assay: Antitrypanosomal activity against Trypanosoma cruzi Tulahuen strain trypomastigotes assessed as parasite growth inhibition incubated for 18 hrs by light microscopic analysis; assay type: functional
Trypanosoma brucei [9] = assay: Antitrypanosomal activity against bloodstream Trypanosoma brucei 427 strain assessed as parasite growth inhibition measured after 24 hrs by propidium iodide staining based flow cytometer method; assay type: functional, organism-based; details: Trypanosoma brucei, 427, 24 h
Trypanosoma brucei [10] = assay: Antitrypanosomal activity against bloodstream Trypanosoma brucei assessed as parasite growth inhibition measured after 72 hrs by resazurin staining based analysis; assay type: functional, organism-based
[11] = Selectivity index, ratio of CC50 for rat L6 cells to IC50 for antitrypanosomal activity against bloodstream Trypanosoma brucei; assay type: toxicity; details: read-out: Ratio CC50/IC50
[12] = test system: Trypanosoma brucei gambiense; assay: Antitrypanosomal activity against bloodstream Trypanosoma brucei gambiense assessed as parasite growth inhibition measured after 72 hrs by resazurin staining based analysis; assay type: functional, organism-based
[13] = Selectivity index, ratio of CC50 for rat L6 cells to IC50 for antitrypanosomal activity against bloodstream Trypanosoma brucei gambiense; assay type: toxicity; details: read-out: Ratio CC50/IC50
Leishmania tropica = assay: Antileishmanial activity against Leishmania tropica promastigotes assessed as inhibition of parasite growth; assay type: functional, organism-based
Leishmania infantum [14] = assay: Antileishmanial activity against Leishmania infantum promastigotes assessed as reduction in cell viability incubated for 24 hrs by propidium iodide staining based flow cytometry assay; assay type: functional, organism-based
[15] = Selectivity index, ratio of CC50 for […] to ratio of IC50 for antileishmanial activity against Leishmania infantum promastigote; assay type: toxicity, cell-based; details: read-out: Ratio CC50/IC50
Leishmania infantum [16] = assay: Antileishmanial activity against Leishmania infantum promastigotes assessed as reduction in cell viability; assay type: functional, organism-based
[17] = Selectivity index, ratio of CC50 for human CC cells to ratio of IC50 for antileishmanial activity against Leishmania major promastigote; assay type: toxicity; details: read-out: Ratio CC50/IC50
Leishmania panamensis [18] = assay: Antileishmanial activity against Leishmania panamensis MHOM/CO/87/UA140-EpiR-GFP strain amastigotes assessed as inhibition of parasite growth incubated for 72 hrs by flow cytometric analysis; assay type: functional, organism-based
[19] = Selectivity index, ratio of LC50 for human U-937 cells to ratio of IC50 for antileishmanial activity against Leishmania panamensis MHOM/CO/87/UA140-EpiR-GFP strain promastigotes; assay type: toxicity; details: read-out: Ratio LC50/IC50
Leishmania amazonensis [20] = assay: Antileishmanial activity against Leishmania amazonensis amastigotes assessed as inhibition of parasite growth; assay type: functional, organism-based
Leishmania amazonensis [21] = assay: Antileishmanial activity against Leishmania amazonensis promastigotes assessed as inhibition of parasite growth; assay type: functional, organism-based
Leishmania braziliensis = assay: Antileishmanial activity against Leishmania braziliensis promastigotes assessed as inhibition of parasite growth; assay type: functional, organism-based
Leishmania panamensis [22] = assay: Antileishmanial activity against Leishmania panamensis MHOM/CO/87/UA140-EpiR-GFP strain promastigotes assessed as inhibition of parasite growth incubated for 72 hrs by flow cytometric analysis; assay type: functional, organism-based
[23] = molecular target: Cruzipain (Trypanosoma cruzi) (UniProt P25779); assay: Inhibition of Trypanosoma cruzi recombinant Cruzaine using Z-FR-AMC as substrate preincubated for 10 mins followed by substrate addition by fluorimeter analysis
Chain of Cruzipain (Trypanosoma cruzi) (P25779 123-467 limits assumed): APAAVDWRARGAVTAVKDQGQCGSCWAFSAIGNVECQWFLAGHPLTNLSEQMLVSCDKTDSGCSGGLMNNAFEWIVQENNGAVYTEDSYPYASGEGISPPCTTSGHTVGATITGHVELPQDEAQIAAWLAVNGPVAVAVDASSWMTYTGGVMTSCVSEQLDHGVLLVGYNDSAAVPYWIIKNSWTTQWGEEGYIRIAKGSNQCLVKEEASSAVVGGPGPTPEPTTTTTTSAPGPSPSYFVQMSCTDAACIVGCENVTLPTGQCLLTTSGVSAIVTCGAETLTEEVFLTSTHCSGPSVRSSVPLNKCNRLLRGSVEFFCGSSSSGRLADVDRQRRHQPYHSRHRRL

Trypanosoma cruzi [24] = assay: Antitrypanosomal activity against Trypanosoma cruzi epimastigote assessed as parasite growth inhibition by optical density based analysis; assay type: functional, organism-based

Structure (SMILES): CC(=O)N1N=C(c2cccs2)CC1c1cc(-c2ccc(C)cc2)nn1-c1ccccc1 (stereo unspecified)
IC50 (Leishmania donovani): 0.16 µM
IC50 (Leishmania aethiopica): 2.24 µM

Structure (SMILES): Cc1ccc(-c2cc(C3CC(c4cccs4)=NN3)n(-c3ccccc3)n2)cc1 (stereo unspecified)
IC50 (Leishmania donovani): 2.07 µM
IC50 (Leishmania aethiopica): 1.08 µM

IC50 (Trypanosoma cruzi [1]): 9.5 µM
Structure (SMILES): C(=N\Nc1nnc(-c2ccccn2)s1)/c1ccccn1
selectivity ratio [2]: 7.7

IC50 (Trypanosoma cruzi [3]): 24.8 µM
Structure (SMILES): C/C(=N\NC(N)=S)c1ccc(Cl)cc1Cl

IC50 (Trypanosoma cruzi [4]): 97.7 µM
Structure (SMILES): NS(=O)(=O)c1ccc(O)c([N+](=O)[O-])c1

Structure (SMILES): CCC(C)Oc1cc(N)nc(Sc2cccc(Cl)c2)n1 (stereo unspecified)
IC50 (Leishmania infantum [5]): 29.4 µM
IC50 (Leishmania infantum [6]): > 0.25 µM

IC50 (Trypanosoma cruzi [7]): 3.07 µM
IC90 (Trypanosoma cruzi [8]): 7.78 µM
Structure (SMILES): CC(c1cccc2ccccc12)n1cc(CCOc2ccc(-c3ccc(-c4nc5ccc(C(=N)N)cc5[nH]4)s3)cc2)nn1 (stereo unspecified)

IC50 (Trypanosoma cruzi [7]): 2.14 µM
IC90 (Trypanosoma cruzi [8]): 5.78 µM
Structure (SMILES): N=C(N)c1ccc2nc(-c3ccc(-c4ccc(OCCc5cn(Cc6cccc7ccccc67)nn5)cc4)s3)[nH]c2c1

IC50 (Trypanosoma brucei [9]): 3.3 µM
Structure (SMILES): CC(=O)OCC1O[C@@H](OC(C)=O)[C@H]([Se][Se]C2O[C@H](COC(C)=O)[C@H](OC(C)=O)[C@H](OC(C)=O)[C@H]2OC(C)=O)[C@@H](OC(C)=O)[C@H]1OC(C)=O (stereo partly specified)

Structure (SMILES): O=C(CSc1nc(-c2ccccc2)cc2cc(-c3ccccc3)nn12)N/N=C/c1ccccc1
IC50 (Leishmania infantum [5]): 4.92 µM
IC50 (Leishmania infantum [6]): 5.85 µM

IC50 (Trypanosoma cruzi [1]): 9.3 µM
Structure (SMILES): Fc1ccc(-c2nnc(N/N=C/c3ccccn3)s2)cc1
selectivity ratio [2]: 6

IC50 (Trypanosoma brucei [10]): 0.091 µM
IC50 [12]: 0.027 µM
Structure (SMILES): CCOC(=O)c1ccc(N/C=C2/SC(=O)N(C(Cc3ccccc3)C(=O)OCC)C2=S)cc1 (stereo unspecified)
selectivity ratio [11]: 409
selectivity ratio [13]: 1400

Structure (SMILES): O=C(Nc1nc2cnc(Cl)nc2s1)c1ccc(Cl)cc1
IC50 (Leishmania tropica): 7.5 µM

IC50 (Trypanosoma cruzi [3]): 6.6 µM
Structure (SMILES): C/C(=N\NC(N)=S)c1cc(Cl)ccc1Cl

IC50 (Trypanosoma brucei [10]): 0.679 µM
IC50 [12]: 0.2 µM
Structure (SMILES): CCOC(=O)C(Cc1ccccc1)N1C(=O)S/C(=C/Nc2cc(S(=O)(=O)N3CCOCC3)ccc2C)C1=S (stereo unspecified)
selectivity ratio [11]: > 255
selectivity ratio [13]: > 870

Structure (SMILES): CCc1cc(-c2csc(-c3ccc(-n4ccnc4CNCCN)cc3OCCN3CCNC3=O)n2)ccc1-c1ccccc1
IC50 (Leishmania infantum [14]): 8.6 µM

Structure (SMILES): O=C1c2ccccc2C(=O)N1Nc1nc(-c2ccc3ccccc3c2)cs1
selectivity ratio [15]: 12.5

Structure (SMILES): Cc1sc(N/N=C/c2ccccn2)nc1-c1ccc(Cl)c(Cl)c1
IC50 (Leishmania infantum [16]): 5.52 µM

Structure (SMILES): NC(=S)N/N=C(/C=C/c1ccccc1)c1ccccc1
IC50 (Leishmania infantum [5]): 14.7 µM
IC50 (Leishmania infantum [6]): 6.88 µM

Structure (SMILES): O=C1c2ccccc2C(=O)N1Nc1nc(-c2ccc(Cl)cc2Cl)cs1
selectivity ratio [15]: 6.4

Structure (SMILES): COCCCNc1nnc(-c2ccc([N+](=O)[O-])s2)s1
selectivity ratio [17]: 2

Structure (SMILES): COc1cc(C2=NN(c3ccccc3)C(c3sc(N(CCCl)CCCl)nc3Cl)C2)cc(OC)c1OC (stereo unspecified)
IC50 (Leishmania panamensis [18]): 13.9 µM
selectivity ratio [19]: 1.48

Structure (SMILES): Cc1ccc([Te]Cc2ncc(-c3ccc(S(C)(=O)=O)cc3)[se]2)cc1
IC50 (Leishmania amazonensis [20]): 6.14 µM

Structure (SMILES): O=C(Nc1nc2cnc(Cl)nc2s1)c1ccc(Cl)cc1Cl
IC50 (Leishmania tropica): 0.5 µM

Structure (SMILES): NCCSc1ccnc2cc(Cl)ccc12
IC50 (Leishmania amazonensis [21]): 52.9 µM
IC50 (Leishmania braziliensis): 39.9 µM

Structure (SMILES): CCc1cc(-c2csc(-c3ccc(-n4ccnc4CNCCN)cc3OCCN3CCNC3=O)n2)cc2ccccc12
IC50 (Leishmania infantum [14]): 5.1 µM

Structure (SMILES): O=C1C=C(c2ccc(C(F)(F)F)cc2)S(=O)(=O)c2ccc(F)cc21
IC50 (Leishmania panamensis [18]): 6.72 µM
IC50 (Leishmania panamensis [22]): 3.24 µM

IC50 (Trypanosoma cruzi [3]): 29 µM
Structure (SMILES): C/C(=N\NC(N)=S)c1ccc(Cl)c(Cl)c1Cl

Structure (SMILES): O=[N+]([O-])c1ccc(-c2nnc(NCCCO)s2)s1
selectivity ratio [17]: 14

Structure (SMILES): ClCCN(CCCl)c1nc(Cl)c(C2CC(c3ccc(Br)cc3)=NN2c2ccccc2)s1 (stereo unspecified)
IC50 (Leishmania panamensis [18]): 10.9 µM
selectivity ratio [19]: 1.6

inhibition [23]: 70%
Structure (SMILES): CN(C)c1ccc(/C=N/NC(N)=S)cc1

Structure (SMILES): OCCSc1ccnc2cc(Cl)ccc12
IC50 (Leishmania amazonensis [21]): > 100 µM
IC50 (Leishmania braziliensis): > 100 µM

Structure (SMILES): C/C(=N\Nc1nc(-c2ccc(Cl)c(Cl)c2)c(C)s1)c1ccccn1
IC50 (Leishmania infantum [16]): 2.73 µM

IC50 (Trypanosoma brucei [9]): 2.7 µM
Structure (SMILES): CC(=O)OCC1OC([Se][Se]C2O[C@H](COC(C)=O)[C@@H](OC(C)=O)[C@@H](OC(C)=O)[C@H]2OC(C)=O)[C@H](OC(C)=O)[C@@H](OC(C)=O)C1OC(C)=O (stereo partly specified)

IC50 (Trypanosoma cruzi [24]): 27 µM
inhibition [23]: 70%
Structure (SMILES): NC(=S)N/N=C/c1ccc[nH]1
